Results from patent publication US5290576A, “Tert-butyloxycarbonyl-L-tyrosyl-peptidoglycan monomer and ^125 I-labeled derivative thereof, their preparation and use” (Pliva Farmaceutska, priority 1990, dated 1994).

How the values were obtained:
[1] = test system: antibody-forming cells (plaque-forming cells, PFC) in the spleen of mice immunized with sheep erythrocytes (SRBC); assay: Immunostimulating activity: plaque-forming cells in spleen of mice immunized with sheep erythrocytes (Jerne's technique); assay type: in vivo; conditions: for PFC, % (of Hanks' control): 200 μg i.v. on day +1, PFC on day +4, Hanks' control = 100; for PFC, mean (X) / PFC, range of individual values: 200 μg i.v. on day +1 after SRBC i.p., PFC in spleen on day +4
Protocol: The immunostimulating activity of Boc-Tyr-PGM was tested in mice immunized with sheep erythrocytes (sheep red blood cells, SRBC).
Mice (CBA or AKR), five per group, were immunized i.p. with sheep erythrocytes (1×10^8 SRBC) in Hanks' solution. One day later (on day +1), the control group of mice receiving i.v. Hanks' solution, whereas the test group of mice was given i.v. 200 μg of Boc-Tyr-PGM in Hanks' solution. As positive control, a group of mice was used, to which 200 μg of peptidoglycan monomer (PGM) in Hanks' solution was administered i.v. Four days later (on day +4), the number of antibody-forming cells (plaque-forming cells, PFC) was determined in the spleen by Jerne's technique (Jerne, N. K., Nordin, A. A., and Henry, C. (1963), The agar plaque tecnique for recognizing antibody producing cells, in: "Cell Bound Antibodies", p. 109, Wistar Institute Press, Philadelphia).

[2] = test system: melanoma B-16; assay: Antitumor (antimetastatic) activity: lung metastases in mice inoculated with melanoma B-16; assay type: in vivo; conditions: for Inhibition % / Metastases %: counted on day 23; for Metastases %: Hanks' control = 100; for Number of metastases, mean (X): C57BL/6 mice, lung metastases counted on day 23
Protocol: The antitumor activity of Boc-Tyr-PGM was investigated in mice, inoculated with melanoma B-16.
Mice (C5 7 BL/6, male, 4 months old), five per group, were given i.v. each 1×10^5 cells of B-16 melanoma on day 0.
One group of mice was chosen as control and was not treated further in any manner. The mice in experimental groups were given i.v. each 1 mg of Boc-Tyr-PGM, according to the following protocol:
3rd group--days 3 and 7 (total 2 mg of Boc-Tyr-PGM)
Three mice groups, which received PGM (PLIVA) i.v. according to the same protocol, were chosen as the positive control.
Macroscopically detectable lung metastases were counted on day 23.

[3] = 1 mg i.v. on days 3 and 7 (total 2 mg)

Substance	PFC, % (of Hanks' control) ([1]; AKR mice) [%]	PFC, mean (X) ([1]; AKR mice)	PFC, range of individual values ([1]; AKR mice)	PFC, % (of Hanks' control) ([1]; CBA mice) [%]	PFC, mean (X) ([1]; CBA mice)	PFC, range of individual values ([1]; CBA mice)	increased number of PFC in comparison with the control group ([1]; both mice strains (CBA, AKR), 200 μg i.v.)	effectiveness compared with the positive control peptidoglycan monomer ([1]; both tests (CBA, AKR))	Inhibition % ([2]; 1 mg i.v. on day 3) [%]	Metastases % ([2]; 1 mg i.v. on day 3) [%]	Inhibition % ([2]; 1 mg i.v. on day 7) [%]	Metastases % ([2]; 1 mg i.v. on day 7) [%]	Inhibition % [2, 3] [%]	Metastases % [2, 3] [%]	Number of metastases, mean (X) ([2]; 1 mg i.v. on day 3)	Number of metastases, mean (X) ([2]; 1 mg i.v. on day 7)	Number of metastases, mean (X) [2, 3]	inhibition rate of metastases, all treated mice groups ([2]; all treatment protocols (day 3, day 7, days 3 and 7))	difference in inhibition rate between treatment periods and total doses ([2]; day 3 or 7, 1 mg on day 3 or total 2 mg on days 3 and 7)	antimetastatic effect compared with PGM (PLIVA) positive control ([2]; mouse, in vivo)
tert-Butyloxycarbonyl-L-tyrosyl-peptidoglycan monomer [Boc-Tyr-PGM]	150	55,974	31,730-68,670	157	295,866	257,600-304,266	approximately 50%	comparable with the effect of the positive control	38.7	61.3	41.9	58.1	43.6	56.4	7.6 ± 1.9	7.2 ± 4.0	7.0 ± 2.7	37.8%-43.6	No significant difference in the inhibition rate	comparable to the effect of PGM (PLIVA)
GlcNAc-β-(1→4)MurNAc-L-Ala-D-iGln-[(L)-meso-A2 pm-(D)-amide-(L)-D-Ala-D-Ala] [PGM, reference compound]	130	48,668	27,200-61,070	166	313,413	198,800-449,866	–	–	50.0	50.0	66.5	43.5	67.3	42.7	6.2 ± 4.4	5.4 ± 1.7	5.3 ± 1.7	–	–	–
